# Results as given in publication PMC8388771, “Cationic Peptidomimetic Amphiphiles Having a N-Aryl- or N-Naphthyl-1,2,3-Triazole Core Structure Targeting Clostridioides (Clostridium) difficile: Synthesis, Antibacterial Evaluation, and an In Vivo C. difficile Infection Model” (Antibiotics, 2021).
# Read-outs that look alike come from different tables or passages of the source.
# Assays:
# [1] = test system: C. difficile; conditions: Figure 1; cited from earlier work
# [2] = test system: E. coli ATCC 25922; set-up: method as in ref 30 (1), 31 (2, 4), 19 (3); conditions: Table 2; ref 30 (1), 31 (2, 4), 19 (3); cited from earlier work
# [3] = test system: C. difficile strain M7404 (RT027); set-up: method as in ref 30 (compound 1), 19 (compound 3); conditions: Table 2 footnote g; ref 30 (compound 1), 19 (compound 3); cited from earlier work
# [4] = test system: C. difficile strain R20291; set-up: method as in ref 30 (compound 1), 19 (compound 3); conditions: Table 2 footnote h; ref 30 (compound 1), 19 (compound 3); cited from earlier work
# [5] = test system: S. aureus ATCC 29213; set-up: method as in ref 30 (1), 31 (2, 4), 19 (3); conditions: Table 2; ref 30 (1), 31 (2, 4), 19 (3); cited from earlier work
# [6] = test system: E. faecalis ATCC 29212; set-up: method as in ref 30 (1), 31 (2, 4), 19 (3); conditions: Table 2; ref 30 (1), 31 (2, 4), 19 (3); cited from earlier work
# [7] = test system: S. pneumoniae ATCC 49619; set-up: method as in ref 30 (1), 31 (2, 4), 19 (3); conditions: Table 2; ref 30 (1), 31 (2, 4), 19 (3); cited from earlier work
# [8] = set-up: method as in PMID 30901686; conditions: cited from earlier work; for appearance in the solubility assay: Figure 1
# [9] = test system: C. difficile 132 (RT027); set-up: method as in PMID 30831407; conditions: Table 2; cited from earlier work
# [10] = test system: S. aureus NCTC 10442; set-up: method as in ref 31 (2, 4), 19 (3); conditions: Table 2; MRSA; ref 31 (2, 4), 19 (3); cited from earlier work
# [11] = test system: C. difficile; set-up: method as in PMID 30901686; conditions: murine CDI model, cited from earlier work; for survival rate at 24 h: 10% DMSO group 0%
# [12] = test system: HEK293 cells; set-up: method as in PMID 30831407; conditions: Table 2; cited from earlier work
# [13] = test system: S. aureus ATCC 43300; set-up: method as in PMID 30831407; conditions: Table 2; MRSA; cited from earlier work
# [14] = test system: sheep erythrocytes; conditions: cited from earlier work; for % hemolysis at 50 µg/mL: Table 2 HC50 column, footnote i, sheep erythrocytes; for in vitro hemolytic activity: in words
# [15] = test system: E. coli ATCC 25922; test: CO-ADD MIC assay, E. coli ATCC 25922; assay type: cell-based
# Procedure, shortened: (§1)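 CO-ADD whole-cell growth-inhibition MIC screening of the peptidomimetics against MRSA and Gram-negative strains.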
# [16] = test system: S. aureus ATCC 43300; test: CO-ADD MIC assay, S. aureus ATCC 43300 (MRSA); assay type: cell-based; conditions: Table S1, MRSA, CO-ADD
# Procedure, shortened: as §1
# [17] = test system: C. difficile ATCC 700057; test: Primary MIC assay, C. difficile ATCC 700057; assay type: cell-based, Clostridioides difficile; conditions: Clostridioides difficile, ATCC700057; Table 1; read-out: MIC C. difficile ATCC 700057
# Procedure, shortened: (§2)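 Tested per Clinical and Laboratory Standards Institute guidance. Controls included vancomycin, colistin, fluconazole and tamoxifen; vancomycin QC ranges were verified.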
# [18] = test system: K. pneumoniae ATCC 700603; test: CO-ADD MIC assay, K. pneumoniae ATCC 700603; assay type: cell-based; conditions: Klebsiella pneumoniae, ATCC700603, Table S1, multi-drug resistant
# Procedure, shortened: as §1
# [19] = test system: A. baumannii ATCC 19606; test: CO-ADD MIC assay, A. baumannii ATCC 19606; assay type: cell-based; conditions: Acinetobacter baumannii, ATCC19606, Table S1
# Procedure, shortened: as §1
# [20] = test system: HEK293 cells; test: Cytotoxicity (CC50) assay by CO-ADD; assay type: cell-based, human; conditions: Table 1; cytotoxicity on HEK293 cells, tested at ≤32 µg/mL
# [21] = Cytotoxicity (CC50) assay by CO-ADD; assay type: cell-based, human; conditions: human, HEK293 cells (ATCC CRL-1573); Table S1; HEK293 cells
# [22] = test system: C. difficile 132 (RT027); test: Primary MIC assay, C. difficile 132 (RT027); assay type: cell-based, Clostridioides difficile; conditions: Clostridioides difficile; Table 1; read-out: MIC C. difficile 132 (RT027)
# Procedure, shortened: as §2
# [23] = test system: E. coli ATCC 25922; test: Primary MIC assay, E. coli ATCC 25922; assay type: cell-based; conditions: Escherichia coli, ATCC25922; Table 1; read-out: MIC E. coli ATCC 25922
# [24] = test system: human erythrocytes; test: Hemolysis assay, HC50 determination; assay type: cell-based
# Procedure: Hemolysis assay (human erythrocytes)–HC50 determination. These were performed as described previously.
# [25] = test system: S. pneumoniae ATCC 49619; test: Primary MIC assay, S. pneumoniae ATCC 49619; assay type: cell-based, Streptococcus pneumoniae; conditions: Table 1
# Procedure, shortened: as §2
# [26] = test system: S. aureus ATCC 29213; test: Primary MIC assay, S. aureus ATCC 29213; assay type: cell-based; conditions: Staphylococcus aureus, ATCC29213; Table 1; read-out: MIC S. aureus ATCC 29213
# Procedure, shortened: as §2
# [27] = test system: S. aureus NCTC 10442; test: Primary MIC assay, S. aureus NCTC 10442 (MRSA); assay type: cell-based; conditions: Staphylococcus aureus; Table 1; MRSA; read-out: MIC S. aureus NCTC 10442
# Procedure, shortened: as §2
# [28] = test system: E. faecalis ATCC 29212; test: Primary MIC assay, E. faecalis ATCC 29212; assay type: cell-based, Enterococcus faecalis; conditions: Table 1
# Procedure, shortened: as §2
# [29] = test system: C. albicans ATCC 90028; test: CO-ADD MIC assay, C. albicans ATCC 90028; assay type: cell-based
# Procedure, shortened: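 Whole-cell growth inhibition (MIC) screening run by CO-ADD. Fluconazole served as antifungal positive control.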
# [30] = test system: P. aeruginosa ATCC 27853; test: CO-ADD MIC assay, P. aeruginosa ATCC 27853; assay type: cell-based; conditions: Pseudomonas aeruginosa, ATCC27853, Table S1
# Procedure, shortened: as §1
smiles,measurement,setting,value
CC(C)CCOC(=O)[C@H](CC(C)C)NC(=O)[C@@H](CCCNC(=N)N)NC(=O)[C@@H](CCCCN)NC(=O)COc1ccc2ccccc2c1-c1c(OCCC(C)C)ccc2ccccc12 [Compound 1],MIC against C. difficile,[1],8 µg/mL
same,MIC E. coli ATCC 25922,[2],16 µg/mL
same,MIC C. difficile strain M7404 (RT027),[3],8 ^g μg/mL
same,MIC C. difficile strain R20291 (RT207),[4],8 ^h μg/mL
same,MIC S. aureus ATCC 29213,[5],2 µg/mL
same,MIC E. faecalis ATCC 29212,[6],2 µg/mL
same,MIC S. pneumoniae ATCC 49619,[7],2 µg/mL
same,appearance in the solubility assay,[8],homogenous suspension
same,SR = solubility ratio relative to that of compound 1,[8],1
CC(C)CCOc1ccc2ccccc2c1-c1c(OCc2cn(C[C@@H](CCCCN)NC(=O)[C@@H](CCCNC(=N)N)NC(=O)CCc3ccccc3)nn2)ccc2ccccc12 [Compound 2],MIC against C. difficile,[1],8 µg/mL
same,MIC C. difficile 132 (RT027),[9],32 µg/mL
same,MIC S. aureus NCTC 104422,[10],4 µg/mL
same,survival rate at 24 h,[11],50%
same,MIC E. coli ATCC 25922,[2],8 µg/mL
same,CC50,[12],27.4 µg/mL
same,MIC S. aureus ATCC 43300,[13],2 µg/mL
same,MIC S. aureus ATCC 29213,[5],4 µg/mL
same,MIC E. faecalis ATCC 29212,[6],4 µg/mL
same,MIC S. pneumoniae ATCC 49619,[7],4 µg/mL
same,% hemolysis at 50 µg/mL,[14],94% ^i
same,appearance in the solubility assay,[8],homogenous suspension
same,SR = solubility ratio relative to that of compound 1,[8],3
CC(C)CCOc1ccc2ccccc2c1-c1c(OCC(=O)N[C@H](CCCNC(=N)N)Cn2cc(-c3ccccc3)nn2)ccc2ccccc12 [Compound 3],MIC against C. difficile,[1],8 µg/mL
same,MIC S. aureus NCTC 104422,[10],2 µg/mL
same,MIC E. coli ATCC 25922,[2],>128 µg/mL
same,MIC C. difficile strain M7404 (RT027),[3],8 ^g μg/mL
same,MIC C. difficile strain R20291 (RT207),[4],8 ^h μg/mL
same,MIC S. aureus ATCC 29213,[5],2 µg/mL
same,MIC E. faecalis ATCC 29212,[6],4 µg/mL
same,MIC S. pneumoniae ATCC 49619,[7],8 µg/mL
same,Haemolysis,[14]; Figure 1,86%
same,in vitro hemolytic activity,[14],high
same,appearance in the solubility assay,[8],flocculation
same,SR = solubility ratio relative to that of compound 1,[8],1
same,solubility during preparation in a 10% DMSO solution,[8]; precipitation,poor solubility
CC(C)CCOc1ccccc1-c1ccccc1OCc1cn(C[C@@H](CCCCN)NC(=O)[C@@H](CCCNC(=N)N)n2cc(C3CCCCC3)nn2)nn1 [Compound 4],MIC against C. difficile,[1],4 µg/mL
same,MIC C. difficile 132 (RT027),[9],8 µg/mL
same,MIC S. aureus NCTC 104422,[10],4 µg/mL
same,survival rate at 24 h,[11],60%
same,survival rate after 48 h,[11],0%
same,MIC E. coli ATCC 25922,[2],8 µg/mL
same,CC50,[12],14.2 µg/mL
same,MIC S. aureus ATCC 43300,[13],4 µg/mL
same,MIC S. aureus ATCC 29213,[5],8 µg/mL
same,MIC E. faecalis ATCC 29212,[6],8 µg/mL
same,MIC S. pneumoniae ATCC 49619,[7],4 µg/mL
same,% hemolysis at 50 µg/mL,[14],23% ^i
same,in vitro hemolytic activity,[14],low
same,appearance in the solubility assay,[8],homogenous suspension
same,SR = solubility ratio relative to that of compound 1,[8],4
CC(C)CCc1cn(-c2c(OCC(=O)N[C@H](CCCNC(=N)N)Cn3cc(C4CCCCC4)nn3)ccc3ccccc23)nn1 [Compound 21],MIC,"[15]; Escherichia coli, ATCC25922, Table S1",32 µg/mL
same,MIC E. coli ATCC 25922,[15]; Table S1,> 32 µg/mL
same,MIC,"[16]; Staphylococcus aureus, read-out: MIC S. aureus ATCC 43300",16 µg/mL
same,MIC S. aureus ATCC 43300,[16],8 µg/mL
same,MIC,[17],128 µg/mL
same,MIC,[18],> 32 µg/mL
same,MIC,[19],> 32 µg/mL
same,CC50,[20],>32 µg/mL
same,CC50,[21],> 32 µg/mL
same,MIC,[22],> 128 µg/mL
same,MIC,[23],128 µg/mL
same,HC50,"[24]; Table 1, lysis of human erythrocytes",>32 µg/mL
same,HC50,"[24]; Table S1, footnote says lysis of sheep erythrocytes",> 32 µg/mL
same,MIC,"[25]; Streptococcus pneumoniae, ATCC49619, read-out: MIC S. pneumoniae ATCC 49619",16 µg/mL
same,MIC S. pneumoniae ATCC 49619,[25],4 µg/mL
same,MIC,[26],8 µg/mL
same,MIC,[27],8 µg/mL
same,MIC,"[28]; Enterococcus faecalis, ATCC29212, read-out: MIC E. faecalis ATCC 29212",16 µg/mL
same,MIC E. faecalis ATCC 29212,[28],4 µg/mL
same,MIC,"[29]; Candida albicans, ATCC90028, Table S1",32 µg/mL
same,MIC C. albicans ATCC 90028,[29]; Table S1,> 32 µg/mL
same,MIC,[30],> 32 µg/mL
